# From patent US12680102B2, “miRNAS for reducing ventricle enlargement” (St. Jude Children's Research Hospital, Inc., priority 2019, dated 2026)
# Assays:
# [1] = tested on: luciferase reporter encoding miRNA sponge; assay: Luciferase assay validating miRNA sponges in Neuro 2a cells; type: cell-based, mouse; settings: pGIPZ vector encoding the miRNA vs control pGIPZ
# Text: FIGS. 13A-13B. Validation of the miRNA Sponges, Related to FIGS. 6A-6H. (FIG. 13A) Luciferase activity measured in Neuro 2a cells transfected with luciferase reporter vector alone, luciferase reporter vector encoding miR-382-3p sponges (two-tailed Student's t-test; t4=1.62, p=0.18) containing two (t4=23.00, *p<0.001), four (t4=24.35, *p<0.001), or six (t4=9.17, *p<0.001) miRNA-binding sites or scrambled sites (t4=2.36, p=0.08) in the presence of control pGIPZ vector or pGIPZ vector encoding miR-382-3p. Based on these experiments, the miR-382-3p sponge with six seed sites was chosen for in vivo experiments. (FIG. 13B) Luciferase activity in Neuro2a cells transfected with luciferase reporter vector alone, luciferase reporter vector encoding miR-674-3p sponges (t4=14.13, *p<0.001) containing two (t4=14.25, *p<0.001), four (t4=80.70, *p<0.001), or six miRNA-binding sites (t4=26.67, *p<0.001), or scrambled (t4=1.11, p=0.33) sites in the presence of control pGIPZ vector or pGIPZ vector encoding miR-674-3p. Data are shown as the mean±S.E.M.
# Generation of miRNA Sponge Constructs. The miR-382-3p and miR-674-3p sponges were generated as described previously (Chun et al., 2017). […]
# [2] = molecular target: T1, Drd1 (Mus musculus, UniProt Q61616); assay: Ex vivo ciliary beating frequency (CBF) in brain slices, Drd1 agonist/antagonist bath-applied; type: cell-based; settings: SKF81297 10 μM bath-applied, slices from 4- to 5-month-old WT mice, vs vehicle (DMSO)
# T1 construct: coronal brain sections (300-μm) were collected in L-15 Leibovitz media; from tissue; host or cells: acute coronal mouse brain slices (300 µm); ciliated ependymal cells of the lateral ventricle wall; WT and Dgcr8+/- mice
# T1 sequence (Q61616 whole entry): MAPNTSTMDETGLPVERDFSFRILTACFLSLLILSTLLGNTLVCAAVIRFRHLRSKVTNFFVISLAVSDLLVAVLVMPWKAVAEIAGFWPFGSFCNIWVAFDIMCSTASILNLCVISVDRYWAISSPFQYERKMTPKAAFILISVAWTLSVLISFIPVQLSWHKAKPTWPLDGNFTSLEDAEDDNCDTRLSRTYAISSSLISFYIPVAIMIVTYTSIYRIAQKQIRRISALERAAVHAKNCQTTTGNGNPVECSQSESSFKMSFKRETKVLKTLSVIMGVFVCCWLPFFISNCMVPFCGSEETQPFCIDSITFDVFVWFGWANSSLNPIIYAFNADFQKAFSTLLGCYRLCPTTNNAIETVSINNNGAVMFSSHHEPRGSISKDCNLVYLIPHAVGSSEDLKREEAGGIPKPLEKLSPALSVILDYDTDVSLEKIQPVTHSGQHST
# Experimental: Ex Vivo Ciliary Beating Frequency Measurements. For ex vivo measurement of CBF, coronal brain sections (300-μm) were collected in L-15 Leibovitz media (Thermo Fisher Scientific) and placed in 37° C., 95%/5% O2/CO2 chamber. Image sequences of CBF were acquired by linescan analysis using an LD C-Apochromat 40× objective water-immersion lens (1.1 NA) in LSM780 confocal microscope (Zeiss AxioObserver). Slices were scanned through a line perpendicular to the axis of the cilia in the Xt mode along this line with an acquisition rate of 529 frames/second (512×1 frame size, 1.89-ms scan time, 5,000 cycles). Transmitted DIC and fluorescence emitted by GFP or Alexa Fluor 488 were collected with a 488- to 568-nm bandpass filter. Fluorescence excitation and transmitted illumination were provided by a 488-nm argon gas laser. The Drd1 agonist (SKF81297, 10 μM; Tocris, Minneapolis, MN) and antagonist (SCH23390, 10 μM; Tocris) were bath-applied once per slice. Five minutes after the agonist or antagonist was applied, the CBF was measured.
Compound,inhibition of reporters containing the sponge sequence (luciferase activity) [1],ependymal CBF [2]
miR-674-3p: mature mouse miRNA CACAGCUCCCAUCUCAGAACAA (SEQ ID NO: 3); in FIG. 13 expressed from pGIPZ vector (listed as Mus musculus),effectively inhibited reporters containing the sponge sequence in vitro,–
Oc1cc2c(c(Cl)c1O)CCNCC2c1ccccc1 (centres unmarked) [SKF81297],–,slowed ependymal CBF compared to vehicle treatment
